Measured values published in ChEMBL document CHEMBL5226302, “Small-Molecule Inhibitors Targeting the Canonical WNT Signaling Pathway for the Treatment of Cancer” (J Med Chem, 2021).
Blank lines part the entries; values can stand above or below the compound they belong to.

Key:
[1] = target: T1, Catenin beta-1 (Homo sapiens, UniProt P35222); test: Binding affinity to beta catenin (unknown origin) assessed as dissociation constant by VP-ITC method
T1 sequence (P35222 whole entry): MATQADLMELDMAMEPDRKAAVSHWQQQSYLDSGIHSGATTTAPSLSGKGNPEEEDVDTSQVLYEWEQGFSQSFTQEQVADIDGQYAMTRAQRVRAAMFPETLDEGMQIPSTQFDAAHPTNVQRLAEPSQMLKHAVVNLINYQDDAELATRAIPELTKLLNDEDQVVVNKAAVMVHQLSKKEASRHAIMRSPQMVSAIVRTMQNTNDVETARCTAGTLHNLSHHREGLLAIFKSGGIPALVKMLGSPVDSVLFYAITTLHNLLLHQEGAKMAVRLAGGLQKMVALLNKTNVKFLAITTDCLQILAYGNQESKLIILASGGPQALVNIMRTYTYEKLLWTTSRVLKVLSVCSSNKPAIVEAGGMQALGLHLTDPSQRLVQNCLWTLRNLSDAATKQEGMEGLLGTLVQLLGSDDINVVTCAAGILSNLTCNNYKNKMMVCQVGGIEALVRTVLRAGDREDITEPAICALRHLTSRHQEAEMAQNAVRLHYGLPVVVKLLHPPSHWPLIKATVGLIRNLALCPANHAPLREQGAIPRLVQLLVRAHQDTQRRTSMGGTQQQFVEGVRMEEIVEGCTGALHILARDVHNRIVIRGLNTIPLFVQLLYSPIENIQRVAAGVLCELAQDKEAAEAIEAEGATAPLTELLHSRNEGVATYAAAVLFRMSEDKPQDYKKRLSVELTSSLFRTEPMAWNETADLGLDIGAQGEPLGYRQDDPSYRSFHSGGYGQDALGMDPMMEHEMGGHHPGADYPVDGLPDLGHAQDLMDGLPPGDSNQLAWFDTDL

[2] = target: T1, Catenin beta-1; test: Binding affinity to human beta catenin assessed as dissociation constant
[3] = target: T2, Poly [ADP-ribose] polymerase tankyrase-2 (Homo sapiens, UniProt Q9H2K2); test: Inhibition of TNKS2 (unknown origin)
T2 sequence (Q9H2K2 whole entry): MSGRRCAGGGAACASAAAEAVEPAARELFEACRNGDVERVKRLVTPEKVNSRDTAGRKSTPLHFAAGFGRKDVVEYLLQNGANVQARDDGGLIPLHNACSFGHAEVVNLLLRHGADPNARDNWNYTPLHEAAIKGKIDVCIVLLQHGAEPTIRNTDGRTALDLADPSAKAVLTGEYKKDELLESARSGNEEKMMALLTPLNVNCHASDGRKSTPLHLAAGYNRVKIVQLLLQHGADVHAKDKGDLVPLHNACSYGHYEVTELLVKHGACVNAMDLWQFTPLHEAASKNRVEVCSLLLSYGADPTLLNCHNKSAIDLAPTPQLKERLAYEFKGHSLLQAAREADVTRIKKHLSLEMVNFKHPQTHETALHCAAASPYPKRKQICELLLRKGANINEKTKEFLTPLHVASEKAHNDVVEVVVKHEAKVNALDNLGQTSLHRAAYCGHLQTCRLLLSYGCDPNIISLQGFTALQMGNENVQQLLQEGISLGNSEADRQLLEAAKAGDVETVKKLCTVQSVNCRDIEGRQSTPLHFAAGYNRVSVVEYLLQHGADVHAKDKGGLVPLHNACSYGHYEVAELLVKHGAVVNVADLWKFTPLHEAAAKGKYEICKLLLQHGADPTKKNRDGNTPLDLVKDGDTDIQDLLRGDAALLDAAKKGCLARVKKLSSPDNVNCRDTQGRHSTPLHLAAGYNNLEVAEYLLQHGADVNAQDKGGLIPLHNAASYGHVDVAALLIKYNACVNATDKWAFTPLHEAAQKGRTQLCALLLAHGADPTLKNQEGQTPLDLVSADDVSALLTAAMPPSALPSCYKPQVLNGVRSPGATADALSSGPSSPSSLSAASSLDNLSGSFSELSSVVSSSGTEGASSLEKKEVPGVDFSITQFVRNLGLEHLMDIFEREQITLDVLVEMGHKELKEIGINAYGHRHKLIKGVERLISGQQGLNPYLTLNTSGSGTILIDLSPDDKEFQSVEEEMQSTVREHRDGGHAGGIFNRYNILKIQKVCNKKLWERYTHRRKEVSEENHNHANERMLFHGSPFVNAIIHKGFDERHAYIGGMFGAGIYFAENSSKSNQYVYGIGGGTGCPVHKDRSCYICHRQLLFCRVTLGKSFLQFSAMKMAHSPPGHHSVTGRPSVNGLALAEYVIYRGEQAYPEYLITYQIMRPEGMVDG

[4] = test system: DLD-1; test: Antiproliferative activity against human DLD-1 cells assessed as reduction in cell viability by cell proliferation assay; assay type: functional, cell-based
[5] = target: Catenin beta-1/Transcription factor 7 (Homo sapiens, UniProt P35222+P36402); test: Inhibition of beta catenin/TCF (unknown origin) by immunoprecipitation method; assay type: protein assay
Sequence of Catenin beta-1/Transcription factor 7 (P36402 whole entry, one chain of several): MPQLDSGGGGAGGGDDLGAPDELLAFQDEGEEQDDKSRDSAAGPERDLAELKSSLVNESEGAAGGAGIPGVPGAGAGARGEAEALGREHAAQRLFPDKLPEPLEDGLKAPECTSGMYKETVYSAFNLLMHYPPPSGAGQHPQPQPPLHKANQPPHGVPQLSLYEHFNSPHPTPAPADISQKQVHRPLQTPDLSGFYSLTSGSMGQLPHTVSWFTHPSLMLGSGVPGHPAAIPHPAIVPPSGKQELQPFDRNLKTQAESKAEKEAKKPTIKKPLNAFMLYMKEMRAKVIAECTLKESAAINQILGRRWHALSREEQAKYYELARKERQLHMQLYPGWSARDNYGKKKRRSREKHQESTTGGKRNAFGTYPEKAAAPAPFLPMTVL

[6] = test system: LNCaP C4-2B; test: Antiproliferative activity against human LNCaP C4-2B cells assessed as inhibition of cell growth by Celltiter-Glo assay; assay type: functional, cell-based
[7] = Inhibition of beta catenin/APC (unknown origin); parameters: species or system Homo sapiens
[8] = Inhibition of Wnt2 signalling in human SW480 cells assessed as reduction in cyclin D1 expression […] measured after 24 hrs by western blot analysis; assay type: cell-based; details: SW480, 24 h
[9] = Efflux ratio of apparent permeability in human Caco-2 cells; assay type: ADME, cell-based
[10] = test system: MCF7; test: Antiproliferative activity against human MCF7 cells by MTT assay; assay type: functional, cell-based
[11] = Oral bioavailability in rat at 5 mg/kg; assay type: ADME, organism-based; details: in vivo

Kd [1]: 60 nM
SMILES: CC[C@H](C)[C@H]1NC(=O)[C@](C)(NC(=O)[C@H](CCC(N)=O)NC(=O)[C@@H]2CCCN2C(=O)[C@H](CC(N)=O)NC(=O)[C@H](CCC(=O)O)NC(=O)CCNC(=S)Nc2ccc3c(c2)C(=O)OC32c3ccc(O)cc3Oc3cc(O)ccc32)CCC/C=C/CCC[C@](C)(C(=O)N[C@@H](Cc2cnc[nH]2)C(=O)N[C@H](C(=O)N[C@@H](CCC(N)=O)C(=O)N[C@@H](CCCNC(=N)N)C(=O)N[C@H](C(=O)N[C@@H](CCSC)C(N)=O)C(C)C)C(C)C)NC(=O)[C@H](CC(=O)O)NC(=O)[C@H](C(C)(C)C)NC1=O

Kd [2]: 160 nM
SMILES: CC(=O)N[C@@H](CCC(=O)O)CN(CC(=O)N[C@@H](CCCNC(=N)N)CN(CC(=O)N[C@@H](CCCNC(=N)N)CN(CC(=O)NC(CC(C)C)CN(CC(=O)N[C@H](CN(CC(=O)N[C@@H](CC(C)C)CN(CC(=O)N[C@@H](CCCNC(=N)N)CN(CC(=O)N[C@@H](C)CN(CC(=O)N[C@@H](CC(C)C)CN(CC(=O)N[C@@H](CC(C)C)CN(CC(N)=O)SCc1ccccc1)S(=O)(=O)CC(C)C)S(C)(=O)=O)S(=O)(=O)CC(C)C)S(=O)(=O)CCN)S(=O)(=O)CC(C)C)C(C)O)S(=O)(=O)CCN)S(C)(=O)=O)S(C)(=O)=O)S(=O)(=O)CCN (stereo partly specified)

IC50 [3]: 22 nM
IC50 [4]: 3000 nM
SMILES: CC1(C)OC(=O)N([C@H]2CC[C@H](c3cnc(N)c(-c4ncccn4)c3)CC2)[C@H]1c1ccccc1

IC50 [5]: 10 µM
IC50 [6]: 195 nM
SMILES: COc1ccc([C@@H](C)N2CC(=O)N[C@H](C)C(=O)CN(CCc3ccccc3Oc3ccccc3)CC(=O)N(c3cc(OC)cc(OC)c3)CC(=O)N(CCCOC(C)C)CC(=O)N([C@H](C)c3ccc(OC)cc3)CC2=O)cc1

IC50 [7]: 28.7 µM
IC50 [8]: 10.8 µM
SMILES: CCOC(=O)CC[C@H](NC(=O)[C@H](CC(=O)OCC)NC(=O)[C@H](Cc1ccc2ccccc2c1)NC(=O)Cc1cc2cc(Cl)ccc2[nH]1)C(=O)OC

efflux ratio [9]: 2.7
SMILES: Cc1cc(N2C[C@@H](C)N[C@@H](C)C2)ncc1-c1ccc(-c2nc3c(ccn3C)c(=O)[nH]2)cc1

EC50 [10]: 7 nM
SMILES: Cc1cccc2c(=O)[nH]c3c(c12)COC(C(C)(C)CO)C3 (stereo unspecified)

bioavailability [11]: 18%
SMILES: COCCNc1cc(C)c(-c2ccc(-c3nc4c(CO)cccc4c(=O)[nH]3)cc2)cn1
